From patent publication US20230257480A1, “ENHANCING BLOOD-BRAIN BARRIER DRUG TRANSPORT BY TARGETING ENDOGENOUS REGULATORS” (THE BOARD OF TRUSTEES OF THE LELAND STANFORD JUNIOR …, priority 2019, published 2023) come the findings set out here.

SMILES strings stand for the structures.

This assay deals with brain endothelial cells. The assay is described as follows: Flow cytometry of brain endothelial cell uptake of tracer after ALPL inhibitor treatment. Format: in vivo, mice. The following applies: Atto 647N-labeled plasma, vs vehicle. The source says:
FIGS. 14A-14D are graphs illustrating flow cytometry quantification of brain endothelial cell uptake of plasma from young mice (3 m.o.) (FIG. 14A), plasma from aged mice (22 m.o.) (FIG. 14B), human holo-transferrin (hu-Tf) from aged mice (FIG. 14C), or transferrin receptor antibody (TfR Ab) from aged mice (FIG. 14D) treated with vehicle (grey) or anti-ALPL (green) via IP injections twice daily for three days, as assessed by % of BECs that are tracer^+ and relative MFI of tracer^+ BECs (for plasma, n=4; for hu-Tf, n=6 vehicle, n=5 anti-ALPL; for TfR Ab, n=9, two-sided t-test, mean+/−s.e.m.). Tracer refers to plasma, hu-Tf, or TfR Ab. FIG. 14E includes representative images of hu-Tf^+ neurons detected in the cortex of mice treated with ALPL inhibitor. Scale bar=40 microns. […] FIG. 14H includes graphs illustrating flow cytometry quantification of brain endothelial cell and brain parenchymal cell uptake of 3 kDa dextran tracer, which probes for disruptions in paracellular permeability, in young mice (3 m.o.) and aged mice (22 m.o.) (n=6 vehicle, n=5 anti-ALPL, two-sided t-test, mean+/−s.e.m.).
CNS cell isolation adopted previously described methods42,139,140. […] For analysis of plasma uptake, at least 1,000 cells of each population of interest were analyzed per sample. […]
(In general: In flow cytometry, cells or beads pass a laser one at a time.)

Take `COc1ccc(OC)c(S(=O)(=O)Nc2cnc3ccccc3c2)c1` [ALPL inhibitor, 2,5-Dimethoxy-N-(quinolin-3-yl)benzenesulfonamide]: where the note is “aged (22 m.o.) mice”, the “plasma uptake in brain endothelial cells, aged mice” value is reported as “increased”. Moreover, the “plasma uptake in brain endothelial cells, young mice” value (young (3 m.o.) mice) is listed as “increased”.
